In brackets after ≈: the same amount, converted by molar mass.
Legend:
[1] = Half-life in human plasma; type: ADME, cell-free
Rattus norvegicus [2] = test: (§1) Volume of distribution at a steady state measured after intravenous bolus administration of 50 mg/kg of compound to rats; type: ADME, organism-based; set-up: dose 50 mg/kg, route intravenous; settings: in vivo
[3] = Maximum plasma concentration measured after intravenous bolus administration of 50 mg/kg of compound to rats; type: ADME, organism-based; set-up: dose 50 mg/kg, route intravenous; settings: rat
[4] = Half-life in rat plasma; type: ADME, organism-based
Rattus norvegicus [5] = test: (§2) Clearance measured after intravenous bolus administration of 50 mg/kg of compound to rats; type: ADME, organism-based; set-up: dose 50 mg/kg, route intravenous; settings: in vivo
[6] = Area under the curve measured after intravenous bolus administration of 50 mg/kg of compound to rats; type: ADME, organism-based; set-up: dose 50 mg/kg, route intravenous; settings: rat, in vivo
Rattus norvegicus [7] = test: (§3) Circulatory half life measured after intravenous bolus administration of 50 mg/kg of compound to rats; type: ADME, organism-based; set-up: dose 50 mg/kg, route intravenous; settings: in vivo
[8] = Solubility was measured in saline at 25 degree C; type: physicochemical
Mus musculus [9] = species: Mus musculus; test: Anti-microbial activity against Staphylococcus aureus measured as percent survival of mice 1 hr post challenge; type: functional; set-up: concentration or dose not given beside the values
[10] = as §1; type: ADME, organism-based; set-up: dose 50 mg/kg, route intravenous; settings: rat, in vivo, read-out: Vss
[11] = as §2; type: ADME, organism-based; set-up: dose 50 mg/kg, route intravenous; settings: rat, in vivo
[12] = as §3; type: ADME, organism-based; set-up: dose 50 mg/kg, route intravenous; settings: rat, in vivo
Mus musculus [13] = species: Mus musculus; test: Anti-microbial activity against Staphylococcus aureus measured as percent survival of mice after pre challenge; type: functional

Which half-life [1] does the source give for `CN[C@H](CC(C)C)C(=O)N[C@H]1C(=O)N[C@@H](CC(N)=O)C(=O)N[C@H]2C(=O)N[C@H]3C(=O)N[C@H](C(=O)N[C@H](C(=O)O)c4cc(O)cc(O)c4-c4cc3ccc4O)[C@H](O)c3ccc(c(Cl)c3)Oc3cc2cc(c3OC2OC(CO)C(O)C(O)C2OC2CC(C)(NC(=O)OCc3cc(C)c(OC(=O)NCCOCCOCCNC(=O)CNC(=O)CC(NC(=O)COCCO)C(=O)NCC(=O)NCCOCCOCCNC(=O)Oc4c(C)cc(COC(=O)NC5(C)CC(OC6C(Oc7c8cc9cc7Oc7ccc(cc7Cl)[C@@H](O)[C@@H](NC(=O)[C@@H](CC(C)C)NC)C(=O)N[C@@H](CC(N)=O)C(=O)N[C@H]9C(=O)N[C@H]7C(=O)N[C@H](C(=O)N[C@H](C(=O)O)c9cc(O)cc(O)c9-c9cc7ccc9O)[C@H](O)c7ccc(c(Cl)c7)O8)OC(CO)C(O)C6O)OC(C)C5O)cc4C)c(C)c3)C(O)C(C)O2)Oc2ccc(cc2Cl)[C@H]1O` (some centres undefined) here?
Its half-life is > 24 h.

And the Vss (Rattus norvegicus [2])?
The Vss was 1.341 L/kg.

What about the Cmax [3] of the same molecule?
Its Cmax is 107 µg/mL.

What about the half-life [4] of the same molecule?
Its half-life is 36 h.

And the CL (Rattus norvegicus [5])?
The CL was 0.383 mL/min/kg.

What about the AUC [6] of the same molecule?
Its AUC is 2180 µg·h/mL.

What about the T1/2 (Rattus norvegicus [7]) of the same molecule?
The T1/2 was 14.2 h.

What about the solubility [8] of the same molecule?
The solubility was 141 mg/mL (≈ 36 mM).

And the Survival (Mus musculus [9])?
Its Survival is 100%.

For `CN[C@H](CC(C)C)C(=O)N[C@H]1C(=O)N[C@@H](CC(N)=O)C(=O)N[C@H]2C(=O)N[C@H]3C(=O)N[C@H](C(=O)N[C@H](C(=O)O)c4cc(O)cc(O)c4-c4cc3ccc4O)[C@H](O)c3ccc(c(Cl)c3)Oc3cc2cc(c3O[C@@H]2O[C@H](CO)[C@@H](O)[C@H](O)[C@H]2O[C@H]2C[C@](C)(N)[C@H](O)[C@H](C)O2)Oc2ccc(cc2Cl)[C@H]1O` [VANCOMYCIN], which Vd [10] is on record?
Its Vd is 0.309 L/kg.

What about the Cmax [3] of the same molecule?
Its Cmax is 162 µg/mL.

What about the clearance [11] of the same molecule?
The clearance was 10.7 mL/min/kg.

And the AUC [6]?
Its AUC is 78.8 µg·h/mL.

And the half-life [12]?
The half-life was 0.34 h.

What about the Survival (Mus musculus [13]) of the same molecule?
Its Survival is 0%.

And the Survival (Mus musculus [9])?
Its Survival is 100%.

For `CN[C@H](CC(C)C)C(=O)N[C@H]1C(=O)N[C@@H](CC(N)=O)C(=O)N[C@H]2C(=O)N[C@H]3C(=O)N[C@H](C(=O)N[C@H](C(=O)O)c4cc(O)cc(O)c4-c4cc3ccc4O)[C@H](O)c3ccc(c(Cl)c3)Oc3cc2cc(c3OC2OC(CO)C(O)C(O)C2OC2CC(C)(NC(=O)OCc3cc(C)c(OC(=O)C(C)NC(=O)COCCO)c(C)c3)C(O)C(C)O2)Oc2ccc(cc2Cl)[C@H]1O` (some centres undefined), which half-life [1] is on record?
Its half-life is > 24 h.

And the Vss (Rattus norvegicus [2])?
Its Vss is 2.6408 L/kg.

What about the Cmax [3] of the same molecule?
Its Cmax is 47.9 µg/mL.

And the half-life [4]?
The half-life was 16 h.

What about the CL (Rattus norvegicus [5]) of the same molecule?
The CL was 2.972 mL/min/kg.

And the AUC [6]?
The AUC was 282 µg·h/mL.

And the T1/2 (Rattus norvegicus [7])?
Its T1/2 is 4.09 h.

What about the solubility [8] of the same molecule?
Its solubility is 122 mg/mL (≈ 67.8 mM).

And the Survival (Mus musculus [13])?
The Survival was 80%.

And the Survival (Mus musculus [9])?
Its Survival is 100%.

Which half-life [1] does the source give for `CN[C@H](CC(C)C)C(=O)N[C@H]1C(=O)N[C@@H](CC(N)=O)C(=O)N[C@H]2C(=O)N[C@H]3C(=O)N[C@H](C(=O)N[C@H](C(=O)O)c4cc(O)cc(O)c4-c4cc3ccc4O)[C@H](O)c3ccc(c(Cl)c3)Oc3cc2cc(c3OC2OC(CO)C(O)C(O)C2OC2CC(C)(NC(=O)OCc3cc(C)c(OC(=O)CNC(=O)CC(NC(=O)COCCO)C(=O)NCC(=O)Oc4c(C)cc(COC(=O)NC5(C)CC(OC6C(Oc7c8cc9cc7Oc7ccc(cc7Cl)[C@@H](O)[C@@H](NC(=O)[C@@H](CC(C)C)NC)C(=O)N[C@@H](CC(N)=O)C(=O)N[C@H]9C(=O)N[C@H]7C(=O)N[C@H](C(=O)N[C@H](C(=O)O)c9cc(O)cc(O)c9-c9cc7ccc9O)[C@H](O)c7ccc(c(Cl)c7)O8)OC(CO)C(O)C6O)OC(C)C5O)cc4C)c(C)c3)C(O)C(C)O2)Oc2ccc(cc2Cl)[C@H]1O` (some centres undefined) here?
The half-life was > 24 h.

And the Vss (Rattus norvegicus [2])?
Its Vss is 3.598 L/kg.

And the Cmax [3]?
Its Cmax is 29.3 µg/mL.

What about the half-life [4] of the same molecule?
The half-life was 20 h.

What about the CL (Rattus norvegicus [5]) of the same molecule?
Its CL is 1.63 mL/min/kg.

What about the AUC [6] of the same molecule?
Its AUC is 513 µg·h/mL.

And the T1/2 (Rattus norvegicus [7])?
Its T1/2 is 12.37 h.

What about the solubility [8] of the same molecule?
Its solubility is 120 mg/mL (≈ 33.6 mM).

What about the Survival (Mus musculus [9]) of the same molecule?
Its Survival is 100%.

What does the source list for `CN[C@H](CC(C)C)C(=O)N[C@H]1C(=O)N[C@@H](CC(N)=O)C(=O)N[C@H]2C(=O)N[C@H]3C(=O)N[C@H](C(=O)N[C@H](C(=O)O)c4cc(O)cc(O)c4-c4cc3ccc4O)[C@H](O)c3ccc(c(Cl)c3)Oc3cc2cc(c3OC2OC(CO)C(O)C(O)C2OC2CC(C)(NC(=O)OCc3cc(C)c(OC(=O)CNC(=O)COCCO)c(C)c3)C(O)C(C)O2)Oc2ccc(cc2Cl)[C@H]1O` (some centres undefined)?
half-life [1]: 27 h; Vd [10]: 2.72 L/kg; Cmax [3]: 25.5 µg/mL; half-life [4]: 19 h; clearance ([11]; read-out: CL (converted)): 2.19 mL/min/kg; AUC [6]: 386 µg·h/mL; half-life [12]: 10.5 h; solubility [8]: 145 mg/mL (≈ 81.2 mM); Survival (Mus musculus [9]): 100%

With `CN[C@H](CC(C)C)C(=O)N[C@H]1C(=O)N[C@@H](CC(N)=O)C(=O)N[C@H]2C(=O)N[C@H]3C(=O)N[C@H](C(=O)N[C@H](C(=O)O)c4cc(O)cc(O)c4-c4cc3ccc4O)[C@H](O)c3ccc(c(Cl)c3)Oc3cc2cc(c3OC2OC(CO)C(O)C(O)C2OC2CC(C)(NC(=O)OCc3cc(C)c(OC(=O)NCCOCCO)c(C)c3)C(O)C(C)O2)Oc2ccc(cc2Cl)[C@H]1O` (some centres undefined) as the molecule, how does the half-life [1] read?
Its half-life is > 24 h.

What about the Vd [10] of the same molecule?
The Vd was 1.65 L/kg.

And the Cmax [3]?
Its Cmax is 54.6 µg/mL.

What about the half-life [4] of the same molecule?
The half-life was > 24 h.

And the clearance ([11]; read-out: CL (converted))?
Its clearance is 1.17 mL/min/kg.

What about the AUC [6] of the same molecule?
The AUC was 717 µg·h/mL.

What about the half-life [12] of the same molecule?
Its half-life is 9.12 h.

And the solubility [8]?
Its solubility is 141 mg/mL (≈ 80.2 mM).

What about the Survival (Mus musculus [9]) of the same molecule?
The Survival was 90%.

What does the source list for `CN[C@H](CC(C)C)C(=O)N[C@H]1C(=O)N[C@@H](CC(N)=O)C(=O)N[C@H]2C(=O)N[C@H]3C(=O)N[C@H](C(=O)N[C@H](C(=O)O)c4cc(O)cc(O)c4-c4cc3ccc4O)[C@H](O)c3ccc(c(Cl)c3)Oc3cc2cc(c3OC2OC(CO)C(O)C(O)C2OC2CC(C)(NC(=O)OCc3cc(C)c(OC(=O)COCCO)c(C)c3)C(O)C(C)O2)Oc2ccc(cc2Cl)[C@H]1O` (some centres undefined)?
half-life [1]: 6.6 h; half-life [4]: 2 h; solubility [8]: 131 mg/mL (≈ 75.7 mM); Survival (Mus musculus [9]): 100%

For `O=C(O)COCCO`, which half-life [4] is on record?
Its half-life is > 24 h.

What about the solubility [8] of the same molecule?
Its solubility is 128 mg/mL (≈ 1070 mM).

From ChEMBL document CHEMBL1145985, “Poly(ethylene glycol) transport forms of vancomycin: a long-lived continuous release delivery system” (J Med Chem, 2003)
